Test results from patent publication US8349826B2, “Oxazolidinone derivatives” (Actelion Pharmaceuticals Ltd., priority 2008, dated 2013).
Values after ≈ are worked out from the molar mass of the structure shown.

Each compound was assayed on Moraxella catarrhalis A894 (assay: MIC by broth microdilution (cation-adjusted Mueller-Hinton Broth, CLSI M7-A7)).
Format: cell-based
Method: Minimal inhibitory concentrations (MICS; mg/l) were determined in cation-adjusted Mueller-Hinton Broth by a microdilution procedure following the description given in “Procedures for Dilution Antimicrobial Susceptibility Tests for Bacteria that Grow Aerobically”, Approved standard, 7th ed., Clinical and Laboratory Standards Institute (CLSI) Document M7-A7, Wayne, Pa., USA, 2006. All Example compounds were tested against several Gram positive and Gram negative bacteria such as S. aureus, E. faecalis, S. pneumoniae, M. catarrhalis, A. baumanii, E. coli or P. aeruginosa.

First: COc1ccc2c(c1)N(CCCNC[C@@H]1CN(c3ccc4c(c3)OCCO4)C(=O)O1)C(=O)CC2 [Example 28, 1-(3-{[(R)-3-(2,3-dihydro-benzo[1,4]dioxin-6-yl)-2-oxo-oxazolidin-5-ylmethyl]-amino}-propyl)-7-methoxy-3,4-dihydro-1H-quinolin-2-one]
Second: COc1ccc2ncc(=O)n(CCCNC[C@@H]3CN(c4ccc(C)c(F)c4)C(=O)O3)c2n1 [Example 29, 4-(3-{[(R)-3-(3-fluoro-4-methyl-phenyl)-2-oxo-oxazolidin-5-ylmethyl]-amino}-propyl)-6-methoxy-4H-pyrido[2,3-b]pyrazin-3-one]
The MIC of the first is 16-fold higher: 1 mg/L (≈ 2.14 µM) for the first, 0.063 mg/L (≈ 0.143 µM) for the second.

Compared with COc1ccc2ncc(=O)n(C3CN(C[C@@H]4CN(c5ccc6c(c5)NC(=O)CS6)C(=O)O4)C3)c2n1 [Example 30, 6-methoxy-4-{1-[(R)-2-oxo-3-(3-oxo-3,4-dihydro-2H-benzo[1,4]thiazin-6-yl)-oxazolidin-5-ylmethyl]-azetidin-3-yl}-4H-pyrido[2,3-b]pyrazin-3-one], CCOc1ccc(N2C[C@@H](CCN3CC(n4c(=O)cnc5ccc(OC)nc54)C3)OC2=O)cc1 [Example 34, 4-(1-{2-[(R)-3-(4-ethoxy-phenyl)-2-oxo-oxazolidin-5-yl]-ethyl}-azetidin-3-yl)-6-methoxy-4H-pyrido[2,3-b]pyrazin-3-one] is higher in MIC: at most 0.016 mg/L for the first, 8 mg/L (≈ 17.2 µM) for the second.

Compound COc1ccc2nc(C)c(=O)n(CCCNC[C@@H]3CN(c4ccc5c(c4)NC(=O)CS5)C(=O)O3)c2n1 [Example 35, 6-methoxy-2-methyl-4-(3-{[(R)-2-oxo-3-(3-oxo-3,4-dihydro-2H-benzo[1,4]thiazin-6-yl)-oxazolidin-5-ylmethyl]-amino}-propyl)-4H-pyrido[2,3-b]pyrazin-3-one] has an MIC of at most 0.016 mg/L.

For “rac-4-(2-{2-[3-(2,3-dihydro-[1,4]dioxino[2,3-b]pyridin-6-yl)-2-oxo-oxazolidin-5-yl]-ethylamino}-ethyl)-6-methoxy-4H-pyrido[2,3-b]pyrazin-3-one [Example 32]”, the “MIC Moraxella catarrhalis A894” value was 1 mg/L.
